# Results: patent US20200323203A1, “SYNERGISTIC PESTICIDAL COMPOSITIONS AND METHODS FOR DELIVERY OF ACTIVE INGREDIENTS” (0903608 B.C. Ltd., priority 2017, published 2020)
# Several values for one entry are separate records, joined by “and”; a condition that tells them apart may be missing. Equal entries are not always repeated.
# How the values were obtained:
# physchem = details: aqueous with cosolvent or surfactant or cyclodextrin, kinetic from dmso stock
# Fusarium oxysporum = test: Synergistic Growth Inhibition Assay (MIC / FIC index), Fusarium oxysporum; assay type: cell-based; details: individual compound alone
# Description: (§1) In some embodiments, the synergistic action between the pesticidal active ingredient, and the at least one C6-C10 (or alternatively C11 or C12) saturated or unsaturated aliphatic acid components of the pesticidal compositions according to embodiments of the present disclosure was tested using a Synergistic Growth Inhibition Assay, which is derived from and related to a checkerboard assay as is known in the art for testing of combinations of antimicrobial agents. In the Synergistic Growth Inhibition Assay used in accordance with some embodiments of the present disclosure, multiple dilutions of combinations of pesticidal active ingredient and at least one C6-C10 saturated or unsaturated aliphatic acid agents are tested in individual cells for inhibitory activity against a target pest or pathogenic organism. In one such embodiment, the combinations of pesticidal active ingredient and C6-C10 (or alternatively C11 or C12) saturated or unsaturated aliphatic acid agents may preferably be tested in decreasing concentrations. In a further such embodiment, the combinations of pesticidal active ingredient and C6-C10 (or alternatively C11 or C12) saturated or unsaturated aliphatic acid agents may be tested in increasing concentrations. These multiple combinations of the pesticidal active ingredient and at least one C6-C10 (or alternatively C11 or C12) saturated or unsaturated aliphatic acid agents may be prepared in 96-well microtiter plates. In one such embodiment, the Synergistic Growth Inhibition Assay then comprises rows which each contain progressively decreasing concentrations of the pesticidal active ingredient and one or more C6-C10 (or alternatively C11 or C12) saturated or unsaturated aliphatic acid agents to test for the MIC of the agents in combination at which growth of the target pest or pathogen is inhibited. Thus, each well of the microtiter plate is a unique combination of the two agents, at which inhibitory efficacy of the combination against the target pest or pathogen can be determined.
# In one embodiment according to the present disclosure, for each row of microtiter cells in the Synergistic Growth Inhibition Assay, the FIC index is calculated from the lowest concentration of the pesticidal active ingredient and one or more C6-C10 saturated or unsaturated aliphatic acid agents necessary to inhibit growth of a target pest or pathogen. The FIC of each component is derived by dividing the concentration of the agent present in that well of the microtiter plate by the minimal inhibitory concentration (MIC) needed of that agent alone to inhibit growth of the target pest or pathogen. The FIC index is then the sum of these values for both agents in that well of the microtiter plate. The FIC index is calculated for each row as follows:
# FICindex=MICa/MICA+MICb/MICB
# Fractional inhibitory concentration indices may then used as measure of synergy. […] When the FIC index is equal to 1, the combination is additive.
# Then, serial dilutions of these initial compositions in successive wells in the row of the microtiter plate were used to assay the pesticidal composition under the same conditions to determine the concentration of the composition combining the two agents corresponding to the microtiter well in which growth inhibition of the target pest or organism ceases. […]
# Botrytis cinerea = test: Synergistic Growth Inhibition Assay (MIC / FIC index), Botrytis cinerea; assay type: cell-based
# Description: as §1, with “In one such embodiment, the Synergistic Growth Inhibition Assay then comprises rows which each contain progressively decreasing concentrations of the pesticidal active ingredient and one or more C6-C10 (or alternatively C11 or C12) saturated or unsaturated aliphatic acid agents to test for the MIC of the agents in combination at which growth of the target pest or pathogen is inhibited.” left out
# (§2) In one embodiment according to the present disclosure, for each row of microtiter cells in the Synergistic Growth Inhibition Assay, the FIC index is calculated from the lowest concentration of the pesticidal active ingredient and one or more C6-C10 saturated or unsaturated aliphatic acid agents necessary to inhibit growth of a target pest or pathogen. […] The FIC index is calculated for each row as follows: […]
# Sclerotinia sclerotiorum = test: Synergistic Growth Inhibition Assay (MIC / FIC index), Sclerotinia sclerotiorum; assay type: cell-based
# Description: as §1, with “In one such embodiment, the Synergistic Growth Inhibition Assay then comprises rows which each contain progressively decreasing concentrations of the pesticidal active ingredient and one or more C6-C10 (or alternatively C11 or C12) saturated or unsaturated aliphatic acid agents to test for the MIC of the agents in combination at which growth of the target pest or pathogen is inhibited.” left out
# as §2
# [1] = Solubility / effective solubilized concentration in 10% DMSO/90% PDB by HPLC; details: aqueous with cosolvent or surfactant or cyclodextrin, kinetic from dmso stock
# [2] = effective solubilized concentration of working stock solution, DMSO stock diluted 10-fold in PDB, verified by HPLC
# [3] = solubility, in 10% DMSO/90% PDB, HPLC
# [4] = 10% DMSO/90% potato dextrose broth (PDB)
compound,measurement,setting,value
Fc1ccc([C@]2(Cn3cncn3)O[C@H]2c2ccccc2Cl)cc1 (racemic) [Epoxiconazole],solubility,physchem,30 µg/mL
"C/C=C/C=C/C(=O)[O-].[K+] [(2E,4E)-2,4-hexadienoic acid, potassium salt]",MIC (A) / MIC (B) of the compound used alone,Fusarium oxysporum; 24 hour incubation,625 µg/mL
CO/C=C(/C(=O)OC)c1ccccc1Oc1cc(Oc2ccccc2C#N)ncn1 [Azoxystrobin],MIC (A) / MIC (B) of the compound used alone,"Botrytis cinerea; individual compound alone, incubation period of 48 hours",37.5 µg/mL and 75 µg/mL
same,MIC (A) / MIC (B) of the compound used alone,Fusarium oxysporum; incubation period of 48 hours,75 µg/mL and 150 µg/mL
same,MIC (A) / MIC (B) of the compound used alone,"Sclerotinia sclerotiorum; individual compound alone, incubation period of 7 days",150 µg/mL
N#Cc1c(Cl)c(Cl)c(Cl)c(C#N)c1Cl [Chlorothalonil],solubility,[1]; [2],2 µg/mL
"CCCCCCCCCC(=O)O [Decanoic acid, decanoic acid]",MIC,"Botrytis cinerea; Botrytis cinerea, 96 h, Compound B alone, incubation 4 days",500 µg/mL
same,MIC (A) / MIC (B) of the compound used alone,Fusarium oxysporum; 24 hour incubation,250 µg/mL
"CCCCCCCCCC(=O)[O-].[K+] [Decanoic acid, potassium salt, decanoic acid, potassium salt]",MIC (A) / MIC (B) of the compound used alone,Fusarium oxysporum; 24 hour incubation,78.12 µg/mL
"CCCCCCCCCCCC(=O)O [Dodecanoic acid, dodecanoic acid]",MIC (B),"Botrytis cinerea; Compound B alone, incubation 48 hours",50 µg/mL
same,MIC (B),"Sclerotinia sclerotiorum; Compound B alone, incubation 7 days",50 µg/mL
"N#Cc1c[nH]cc1-c1cccc2c1OC(F)(F)O2 [Fludioxonil, fludioxonil]",solubility,[1]; [2],21 µg/mL
same,solubility,[1]; [3],15.4 µg/mL
"CCCCCC(=O)O [Hexanoic acid, hexanoic acid]",MIC (A) / MIC (B) of the compound used alone,Fusarium oxysporum; incubation period of 48 hours,156.2 µg/mL
COCC(=O)N(c1c(C)cccc1C)C(C)C(=O)OC (centres unmarked) [Metalaxyl],solubility,[1]; [2],316 µg/mL
CCCC1COC(Cn2cncn2)(c2ccc(Cl)cc2Cl)O1 (centres unmarked) [Propiconazole],solubility,[1]; [4],89 µg/mL
"COC(=O)N(OC)c1ccccc1COc1ccn(-c2ccc(Cl)cc2)n1 [Pyraclostrobin, pyraclostrobin]",solubility,[1]; [2],15 µg/mL
same,solubility,[1]; [3],15.4 µg/mL
C/C=C(/C)C(=O)O[C@H]1C[C@@H](OC(C)=O)[C@@]2(C)CO[C@H]3[C@H]4O[C@@H]5C[C@@H](c6ccoc6)C(C)=C5[C@@]4(C)[C@H](CC(=O)OC)[C@]1(C)[C@@H]32 [Salannin],MIC,"Sclerotinia sclerotiorum; Sclerotinia sclerotiorum, […], Compound A alone, incubation 7 days",500 µg/mL
CC(C)(C)C(O)(CCc1ccc(Cl)cc1)Cn1cncn1 (centres unmarked) [Tebuconazole],solubility,[1]; [4],450 µg/mL
